Source: publication PMC12748766, “Structural basis for human chondroitin sulfate chain polymerization” (Nature Communications, 2025)

Key:
Experiment in all cases: FACE gel glycosylation assay
Assay type in all cases: biochemical
CHSY1-CHPF2 complex = biological target: T1, CHSY1-CHPF2 complex (Homo sapiens, UniProt Q86X52); settings: acceptor TAMRA-labelled Penta-CSF1 glycopeptide, co-donor UDP-GlcA; Mn2+ and Mg2+, pH 6.5, 30 C
T1 construct: secreted luminal part of both chains (TM helix removed), HEK Freestyle 293-F; N-terminal SUMO, His6 cut with 3C; C-terminal Avi (CHSY1), 3C site and twin-Strep (CHPF2); heterodimer, expected 169 kDa; with Chondroitin sulfate glucuronyltransferase
T1 sequence (Q86X52 68-802): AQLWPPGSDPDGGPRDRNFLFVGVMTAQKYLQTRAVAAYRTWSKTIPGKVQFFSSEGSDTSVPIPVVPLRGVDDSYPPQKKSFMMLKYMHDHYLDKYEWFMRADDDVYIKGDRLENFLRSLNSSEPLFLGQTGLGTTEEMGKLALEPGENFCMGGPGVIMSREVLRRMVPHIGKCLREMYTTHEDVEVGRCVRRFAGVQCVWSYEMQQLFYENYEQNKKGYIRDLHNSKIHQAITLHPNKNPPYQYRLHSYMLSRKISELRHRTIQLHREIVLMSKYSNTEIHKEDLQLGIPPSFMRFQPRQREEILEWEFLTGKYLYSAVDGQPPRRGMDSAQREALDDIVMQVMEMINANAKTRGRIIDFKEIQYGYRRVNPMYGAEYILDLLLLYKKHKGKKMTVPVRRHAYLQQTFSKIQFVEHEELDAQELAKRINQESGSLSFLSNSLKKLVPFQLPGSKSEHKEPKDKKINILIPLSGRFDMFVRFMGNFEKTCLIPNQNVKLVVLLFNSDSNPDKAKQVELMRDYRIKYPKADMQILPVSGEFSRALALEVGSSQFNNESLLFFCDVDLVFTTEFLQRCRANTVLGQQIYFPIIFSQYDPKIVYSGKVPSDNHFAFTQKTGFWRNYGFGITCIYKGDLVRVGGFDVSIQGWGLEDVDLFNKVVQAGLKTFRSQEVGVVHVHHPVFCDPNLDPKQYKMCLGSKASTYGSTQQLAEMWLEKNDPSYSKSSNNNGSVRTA
T1 sequence (Q9P2E5 57-772 partner): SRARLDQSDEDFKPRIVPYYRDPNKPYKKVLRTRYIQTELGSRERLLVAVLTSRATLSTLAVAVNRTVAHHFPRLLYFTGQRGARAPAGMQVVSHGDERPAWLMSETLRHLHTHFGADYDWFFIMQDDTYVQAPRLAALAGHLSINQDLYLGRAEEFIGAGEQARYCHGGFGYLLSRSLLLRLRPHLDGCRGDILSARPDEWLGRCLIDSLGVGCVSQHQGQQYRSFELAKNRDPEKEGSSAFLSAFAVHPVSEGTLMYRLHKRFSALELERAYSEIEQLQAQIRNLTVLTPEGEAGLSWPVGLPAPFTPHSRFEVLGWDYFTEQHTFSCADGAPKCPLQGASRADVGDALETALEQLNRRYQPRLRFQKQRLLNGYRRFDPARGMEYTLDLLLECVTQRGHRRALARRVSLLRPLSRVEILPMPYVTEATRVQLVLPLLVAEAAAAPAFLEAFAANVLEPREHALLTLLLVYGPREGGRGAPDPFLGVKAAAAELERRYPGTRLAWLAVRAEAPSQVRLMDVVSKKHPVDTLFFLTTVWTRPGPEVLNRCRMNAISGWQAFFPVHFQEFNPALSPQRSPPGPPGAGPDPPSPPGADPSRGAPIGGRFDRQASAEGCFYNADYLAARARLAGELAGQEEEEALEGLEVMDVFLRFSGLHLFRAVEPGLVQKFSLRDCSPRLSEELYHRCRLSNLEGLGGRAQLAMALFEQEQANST

CHSY3-CHPF2 complex = biological target: T2, CHSY3-CHPF2 complex (Homo sapiens, UniProt Q70JA7); settings: acceptor TAMRA-labelled Penta-CSF1 glycopeptide, co-donor UDP-GlcA; Mn2+ and Mg2+, pH 6.5, 30 C
T2 construct: secreted luminal part of both chains (TM helix removed), HEK Freestyle 293-F; N-terminal SUMO, His6 cut with 3C; C-terminal Avi (CHSY3), 3C site and twin-Strep (CHPF2); heterodimer, expected 167 kDa; with Chondroitin sulfate glucuronyltransferase
T2 sequence (Q70JA7 157-882): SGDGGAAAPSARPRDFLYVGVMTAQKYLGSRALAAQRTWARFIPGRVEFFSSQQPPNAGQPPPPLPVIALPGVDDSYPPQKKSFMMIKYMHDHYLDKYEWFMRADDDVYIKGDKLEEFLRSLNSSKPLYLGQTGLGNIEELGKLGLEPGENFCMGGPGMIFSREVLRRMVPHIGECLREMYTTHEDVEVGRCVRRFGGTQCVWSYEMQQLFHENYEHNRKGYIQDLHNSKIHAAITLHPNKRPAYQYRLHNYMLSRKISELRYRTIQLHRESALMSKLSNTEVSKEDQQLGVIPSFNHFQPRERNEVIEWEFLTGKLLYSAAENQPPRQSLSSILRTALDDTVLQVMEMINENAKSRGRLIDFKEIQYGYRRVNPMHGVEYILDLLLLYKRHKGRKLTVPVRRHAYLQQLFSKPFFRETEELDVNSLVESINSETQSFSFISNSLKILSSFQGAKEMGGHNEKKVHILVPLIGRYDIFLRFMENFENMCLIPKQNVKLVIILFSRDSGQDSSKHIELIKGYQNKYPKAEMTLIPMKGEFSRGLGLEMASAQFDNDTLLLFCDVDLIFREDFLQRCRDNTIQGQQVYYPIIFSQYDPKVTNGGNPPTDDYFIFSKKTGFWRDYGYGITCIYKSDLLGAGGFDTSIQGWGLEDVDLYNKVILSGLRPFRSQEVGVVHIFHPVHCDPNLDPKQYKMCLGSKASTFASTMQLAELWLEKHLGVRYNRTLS
T2 sequence (Q9P2E5 57-772 partner): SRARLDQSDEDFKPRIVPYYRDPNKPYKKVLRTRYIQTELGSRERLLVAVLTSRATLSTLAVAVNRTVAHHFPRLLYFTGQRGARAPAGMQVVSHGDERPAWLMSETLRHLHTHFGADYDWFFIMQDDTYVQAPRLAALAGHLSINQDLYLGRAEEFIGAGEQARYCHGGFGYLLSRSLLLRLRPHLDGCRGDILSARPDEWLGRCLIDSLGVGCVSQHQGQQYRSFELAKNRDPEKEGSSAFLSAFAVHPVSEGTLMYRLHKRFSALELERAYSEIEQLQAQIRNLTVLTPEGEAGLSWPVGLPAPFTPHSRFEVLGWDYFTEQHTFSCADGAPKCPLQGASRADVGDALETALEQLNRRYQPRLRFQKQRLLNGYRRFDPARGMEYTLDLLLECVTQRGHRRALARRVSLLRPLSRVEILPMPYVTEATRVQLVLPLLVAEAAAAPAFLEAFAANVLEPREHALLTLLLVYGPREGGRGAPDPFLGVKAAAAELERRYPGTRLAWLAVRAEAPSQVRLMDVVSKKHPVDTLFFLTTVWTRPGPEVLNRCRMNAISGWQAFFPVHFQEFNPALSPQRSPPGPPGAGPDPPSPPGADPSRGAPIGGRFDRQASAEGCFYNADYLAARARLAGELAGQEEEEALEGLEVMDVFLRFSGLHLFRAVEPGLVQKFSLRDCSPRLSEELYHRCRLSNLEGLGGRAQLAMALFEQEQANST

CHSY1-CHPF complex = biological target: T3, CHSY1-CHPF complex (Homo sapiens, UniProt Q86X52); settings: acceptor TAMRA-labelled Penta-CSF1 glycopeptide, co-donor UDP-GlcA; Mn2+ and Mg2+, pH 6.5, 30 C
T3 construct: secreted luminal part of both chains (TM helix removed), HEK Freestyle 293-F; N-terminal SUMO, His6 cut with 3C; C-terminal Avi (CHSY1), 3C site and twin-Strep (CHPF); heterodimer, expected 167 kDa; with Chondroitin sulfate synthase 2
T3 sequence (Q86X52 68-802): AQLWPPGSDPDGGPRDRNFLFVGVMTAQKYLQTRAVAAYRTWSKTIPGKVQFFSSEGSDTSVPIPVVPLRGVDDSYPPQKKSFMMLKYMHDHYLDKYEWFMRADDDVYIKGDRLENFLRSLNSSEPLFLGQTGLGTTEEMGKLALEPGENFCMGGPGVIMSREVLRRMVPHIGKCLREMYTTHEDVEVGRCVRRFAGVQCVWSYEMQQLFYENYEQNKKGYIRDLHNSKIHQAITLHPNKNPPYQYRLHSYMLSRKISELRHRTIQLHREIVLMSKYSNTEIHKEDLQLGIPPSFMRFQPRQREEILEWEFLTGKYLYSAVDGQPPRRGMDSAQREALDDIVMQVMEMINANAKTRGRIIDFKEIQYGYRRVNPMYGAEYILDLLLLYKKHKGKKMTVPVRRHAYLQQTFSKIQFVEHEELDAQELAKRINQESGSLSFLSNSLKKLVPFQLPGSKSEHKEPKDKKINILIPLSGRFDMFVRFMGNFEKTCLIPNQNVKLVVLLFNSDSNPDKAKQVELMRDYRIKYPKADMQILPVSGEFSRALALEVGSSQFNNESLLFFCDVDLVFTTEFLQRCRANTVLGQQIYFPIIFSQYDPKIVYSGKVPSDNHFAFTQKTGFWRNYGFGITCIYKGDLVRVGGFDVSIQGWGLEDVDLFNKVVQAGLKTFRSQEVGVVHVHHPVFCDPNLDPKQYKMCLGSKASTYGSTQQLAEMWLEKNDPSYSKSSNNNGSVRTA
T3 sequence (Q8IZ52 81-775 partner): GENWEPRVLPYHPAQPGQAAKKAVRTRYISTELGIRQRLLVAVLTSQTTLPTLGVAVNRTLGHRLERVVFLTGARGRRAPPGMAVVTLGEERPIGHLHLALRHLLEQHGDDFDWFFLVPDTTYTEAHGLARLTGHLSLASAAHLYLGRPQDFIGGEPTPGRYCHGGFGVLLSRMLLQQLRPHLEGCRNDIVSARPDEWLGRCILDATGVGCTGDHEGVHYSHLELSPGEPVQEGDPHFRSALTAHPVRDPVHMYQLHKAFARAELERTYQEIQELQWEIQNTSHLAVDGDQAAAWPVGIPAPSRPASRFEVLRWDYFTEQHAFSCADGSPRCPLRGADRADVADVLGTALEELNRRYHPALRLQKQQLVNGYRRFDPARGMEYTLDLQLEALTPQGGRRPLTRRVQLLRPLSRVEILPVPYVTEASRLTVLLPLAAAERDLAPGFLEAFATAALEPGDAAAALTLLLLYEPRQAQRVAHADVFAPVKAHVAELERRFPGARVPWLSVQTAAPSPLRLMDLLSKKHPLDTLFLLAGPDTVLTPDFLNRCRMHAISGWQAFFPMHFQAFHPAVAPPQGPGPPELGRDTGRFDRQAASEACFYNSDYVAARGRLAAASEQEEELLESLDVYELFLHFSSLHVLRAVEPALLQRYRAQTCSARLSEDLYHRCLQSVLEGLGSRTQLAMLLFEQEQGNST

CHSY3-CHPF complex = biological target: T4, CHSY3-CHPF complex (Homo sapiens, UniProt Q70JA7); settings: acceptor TAMRA-labelled Hexa-CSF1 glycopeptide, co-donor UDP-GlcA; Mn2+ and Mg2+, pH 6.5, 30 C; C-terminal GT7 site of CHSY3
T4 construct: secreted luminal part of both chains (TM helix removed), HEK Freestyle 293-F; N-terminal RPTP sigma signal, SUMO, His6 cut with 3C; C-terminal Avi (CHSY3), 3C site and twin-Strep (CHPF); heterodimer, expected 165 kDa; with Chondroitin sulfate synthase 2
T4 sequence (Q70JA7 157-882): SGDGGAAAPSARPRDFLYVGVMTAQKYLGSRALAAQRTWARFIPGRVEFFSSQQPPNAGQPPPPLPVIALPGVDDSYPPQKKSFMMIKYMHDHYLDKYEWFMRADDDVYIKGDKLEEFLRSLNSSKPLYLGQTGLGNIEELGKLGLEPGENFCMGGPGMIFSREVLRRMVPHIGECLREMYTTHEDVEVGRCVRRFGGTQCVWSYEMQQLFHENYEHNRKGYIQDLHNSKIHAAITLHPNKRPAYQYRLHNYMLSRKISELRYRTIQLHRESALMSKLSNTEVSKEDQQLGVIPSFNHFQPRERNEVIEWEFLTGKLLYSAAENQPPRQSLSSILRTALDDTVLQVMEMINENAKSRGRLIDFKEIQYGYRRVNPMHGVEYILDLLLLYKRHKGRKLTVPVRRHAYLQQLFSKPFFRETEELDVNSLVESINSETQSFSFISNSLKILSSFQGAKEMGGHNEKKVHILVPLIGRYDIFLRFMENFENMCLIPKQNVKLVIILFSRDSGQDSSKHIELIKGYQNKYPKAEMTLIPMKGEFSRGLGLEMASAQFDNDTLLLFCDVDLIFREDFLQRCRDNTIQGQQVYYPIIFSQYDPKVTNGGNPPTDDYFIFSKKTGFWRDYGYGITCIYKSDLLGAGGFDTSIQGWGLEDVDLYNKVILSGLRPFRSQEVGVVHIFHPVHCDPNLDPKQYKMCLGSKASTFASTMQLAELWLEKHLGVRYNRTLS
T4 sequence (Q8IZ52 81-775 partner): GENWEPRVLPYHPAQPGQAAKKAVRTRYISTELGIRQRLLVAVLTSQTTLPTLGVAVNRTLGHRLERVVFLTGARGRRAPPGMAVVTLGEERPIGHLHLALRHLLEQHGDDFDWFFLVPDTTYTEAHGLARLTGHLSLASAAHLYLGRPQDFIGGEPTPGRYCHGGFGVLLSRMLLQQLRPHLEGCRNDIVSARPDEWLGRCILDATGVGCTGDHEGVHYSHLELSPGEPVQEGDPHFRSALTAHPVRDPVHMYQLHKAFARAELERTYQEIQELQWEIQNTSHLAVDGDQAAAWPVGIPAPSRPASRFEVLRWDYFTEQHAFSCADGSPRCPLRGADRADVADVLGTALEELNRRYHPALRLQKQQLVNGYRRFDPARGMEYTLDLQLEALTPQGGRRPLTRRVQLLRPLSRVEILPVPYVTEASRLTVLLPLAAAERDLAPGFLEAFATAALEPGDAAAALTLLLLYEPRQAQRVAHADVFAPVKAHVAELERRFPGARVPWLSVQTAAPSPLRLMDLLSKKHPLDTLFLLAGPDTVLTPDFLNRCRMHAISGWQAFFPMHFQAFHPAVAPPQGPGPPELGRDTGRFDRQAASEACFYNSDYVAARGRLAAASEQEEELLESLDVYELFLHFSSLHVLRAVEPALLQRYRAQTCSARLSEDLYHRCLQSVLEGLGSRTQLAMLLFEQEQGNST

Compound: CC(=O)N[C@H]1[C@@H](OP(=O)(O)OP(=O)(O)OC[C@H]2O[C@@H](n3ccc(=O)[nH]c3=O)[C@H](O)[C@@H]2O)O[C@H](CO)[C@H](O)[C@@H]1O [UDP-GalNAc]
- FACE gel glycosylation assay (CHSY1-CHPF2 complex): All four purified CS polymerase complexes were able to elongate the CS chain
- FACE gel glycosylation assay (CHSY3-CHPF2 complex): All four purified CS polymerase complexes were able to elongate the CS chain
- FACE gel glycosylation assay (CHSY1-CHPF complex): All four purified CS polymerase complexes were able to elongate the CS chain
- FACE gel glycosylation assay (CHSY3-CHPF complex): wild-type CHSY3-CHPF complex efficiently elongated the Penta-CSF1 and Hexa-CSF1 substrates into high molecular weight chains
